Laboratory results reported in the SangsterLogP compilation.

Row | SMILES | logP
1 | CCCc1ccc2oc3cc(C(=O)O)ccc3c(=O)c2c1 | 4.59
2 | CCSc1ccc2oc3cc(-c4nnn[nH]4)ccc3c(=O)c2c1 | 4.06
3 | N#Cc1ccc2oc3ccc(-c4nnn[nH]4)cc3c(=O)c2c1 | 2.52
4 | Nc1ccc2oc3cc(-c4nnn[nH]4)ccc3c(=O)c2c1 | 2.18
5 | CCSc1ccc2oc3cc(C(=O)O)ccc3c(=O)c2c1 | 4.36
6 | COc1ccc2oc3cc(-c4nnn[nH]4)ccc3c(=O)c2c1 | 3.15
7 | O=C(O)c1ccc2c(=O)c3cc([N+](=O)[O-])ccc3oc2c1 | 3.12
8 | CCCC(=O)OCCOc1ccc2oc3cc(-c4nnn[nH]4)ccc3c(=O)c2c1 | 3.73
9 | O=c1c2ccc(-c3nnn[nH]3)cc2oc2ccc(OCCO)cc12 | 2.31
10 | CCOc1ccc2oc3cc(-c4nn[nH]n4)ccc3c(=O)c2c1 | 3.67
11 | O=c1c2ccc(-c3nnn[nH]3)cc2oc2ccc([N+](=O)[O-])cc12 | 2.83
12 | O=c1c2ccccc2oc2cc(-c3nn[nH]n3)ccc12 | 2.86
13 | CCCCOc1ccc2oc3cc(-c4nnn[nH]4)ccc3c(=O)c2c1 | 4.69

Further lines, results first:

Row | logP | SMILES
14 | 3.99 | CCOc1ccc2oc3cc(C(=O)O)ccc3c(=O)c2c1
15 | 2.46 | O=C(O)c1ccc2c(=O)c3cc(OCCO)ccc3oc2c1
16 | 4 | CCCC(=O)OCCOc1ccc2oc3cc(C(=O)O)ccc3c(=O)c2c1
17 | 2.3 | Nc1ccc2oc3cc(C(=O)O)ccc3c(=O)c2c1
18 | 3.12 | COCc1ccc2oc3cc(C(=O)O)ccc3c(=O)c2c1
19 | 2.62 | O=C(O)c1ccc2c(=O)c3cc(OCCOCCO)ccc3oc2c1
20 | 3.37 | COc1ccc2oc3cc(C(=O)O)ccc3c(=O)c2c1
21 | 2.87 | CC(O)COc1ccc2oc3cc(C(=O)O)ccc3c(=O)c2c1 (configuration not stated)
22 | 5 | CCCCOc1ccc2oc3cc(C(=O)O)ccc3c(=O)c2c1
